Measurements from patent US7803910B2, “Soluble CD164 polypeptides” (Merck Serono S.A., priority 2005, dated 2010).

Key:
C3H mice = test: Concanavalin A-induced hepatitis in mice; type: in vivo; settings: 0.3 mg/kg, sc
Text: Several sCD164 variants have been shown in vitro to inhibit secretion of certain cytokines by ConA-stimulated human peripheral blood mononuclear cells (PBMC), see Examples 2 and 3 above. Since cytokines play a crucial role in T-cell induced ConA induced liver hepatitis (Seino et al. 2001, Kusters, 1996; Toyonaga et al. 1994), the present model was used to further test the sCD164 variants.
Eighteen hours later, the animals were sacrificed and the blood was sampled. Serum levels of transaminases (alanine transaminase (ALAT), aspartate aminotransferase (ASAT)) were determined in serum using a clinical analyzer (Hitachi). Dexamethasone (0.3 mg/kg, sc) was used as reference.

[1] = system: peritoneal recruitment of macrophages; test: Thioglycollate-induced leukocyte peritoneal recruitment assay; type: in vivo, C3H mice; settings: 1 mg/kg
Method: The effect of a sCD164 variant on immune cells recruitment was tested using the thioglycollate-induced leukocyte peritoneal recruitment assay. In this example the capacity of ssCD164-Fc (SEQ ID NO: 16) to decrease monocytes/macrophage recruitment was evaluated.
Forty-eight hours after the challenge, the animals were sacrificed and the lavage of the peritoneal cavity was conducted using 2×5 ml PBS-1 mM EDTA (+4° C.). After centrifugation (10 min at 3000 rpm), the pellet was resuspended in 1 ml PBS. The peritoneal cells were counted using a Beckman/Coulter counter. Dexamethasone (1 mg/kg), the anti-inflammatory compound was used as reference positive control.

[2] = system: LPS-induced TNF-α release; test: LPS induced TNF-α release animal model (Example 10); type: in vivo, C3H/HeN mice; settings: 0.1 mg/kg, sc, 15 minutes prior to LPS; plasma 90 minutes after LPS; p<0.001
Method: LPS(O111:B4; SIGMA) is injected (0.3 mg/kg, ip) in C3H/HeN mice (Charles River, France). Ninety minutes later blood is sampled and plasma TNF-α is determined using an ELISA kit (R&D). The CD164 variant to be tested and dexamethasone are diluted in PBS and injected (Sf-CD164 at 0.03, 0.1 and 0.3 mg/kg, iv; or dexamethasone at 0.1 mg/kg, sc) 15 minutes prior to LPS administration.

Balb/c mice = test: K/BxN serum transfer model of arthritis; type: in vivo; settings: 10 mg/kg sc once daily, 3 days per week
Method: This is a passive model of arthritis, induced by serum transfer of K/B×N mice (spontaneously develop arthritis) to naïve mice. This model depends on macrophages and neutrophils. Inflammatory cytokines such as TNFα and IL-1β play an important role in the development of the disease.
Eight week old Balb/c mice (Charles River) received by iv route 150 μl of K/B×N serum (Charles McKay, Australia), containing high level of auto-antibodies against glucose-6-phosphate isomerase. They evolved severe arthritis assessed with a clinical score (0-12) evaluating the presence of swelling, erythema, edema, joint rigidity and ankylosis. The final score was the sum of scores on individual paws. The swelling of ankle, fore paw and hind paw was measure using a caliper. The clinical score and the swelling were determined every day. Fourteen days after the induction of the disease blood was sampled to determine osteocalcin and the legs were removed and fixed in formalin for histology.
Enbrel® (10 mg/kg, sc, once daily, 3 days a week) was used as reference compound.

female mice (Balb/c) = test: Dextran Sodium Sulfate-induced ulcerative colitis model; type: in vivo
Method: The DSS model of colitis mimics some aspects of the human affection such as macrophage infiltration and up regulation of inflammatory cytokines (i.e. TNFα, IL-1p, IL-6) in the colon mucosa.
Ulcerative colitis (UC) was induced in female mice (Balb/c, 20-22 g, Elevage Janvier) by Dextran Sodium Sulfate (DSS 4%) administered in drinking water (oral route). The mice had free access to DSS during 7 days. Body weight was determined daily. The severity of the UC was assessed by a clinical score estimating the constituency of the stool (0=firm, 1=loose, 2=diarrhea) and the presence of blood (0=no blood, 1=occult blood, 2=gross rectal bleeding). Seven days after the induction of the disease, the animals were sacrificed. The length and the weight of the colon were determined and the ratio Weight/Length/100 g body weight was calculated. The spleen weight was also determined. Blood was sampled to determine serum amyloid protein (SAA) using a specific ELISA.
Test substances or vehicle (PBS/0.02% BSA) was administered at days 3, 4, 5 and 6 after the induction of the UC. Enbrel® (1 mg/kg, sc) was used as reference compound. Three studies were performed as per the following table:
In Study 3, the content of IL-1β in the colon was also measured.

[3] = Study 1, reference 1 mg/kg, ip (so in the source)

C[C@@H]1C[C@H]2[C@@H]3CCC4=CC(=O)C=C[C@]4(C)[C@@]3(F)[C@@H](O)C[C@]2(C)[C@@]1(O)C(=O)CO [Dexamethasone, reference compound]
reduction of the level of serum transaminases (C3H mice): 96% | reduction of peritoneal recruitment of macrophages ([1]; iv): 94% | reduction of peritoneal recruitment of macrophages ([1]; sc): 61% | inhibition of LPS-induced TNF-α release [2]: 72%

Enbrel® [reference compound]
decrease of clinical score (Balb/c mice; Study 1): 25% | decrease of paw swelling (Balb/c mice; Study 1): 36% | decrease of serum osteocalcin (Balb/c mice; Study 1): 86% | decrease of clinical score (Balb/c mice; Study 2): 31% | decrease of paw swelling (Balb/c mice; Study 2): 38% | decrease of serum osteocalcin (Balb/c mice; Study 2): 64% | body weight loss (female mice (Balb/c); [3]): not prevented | colon reduction, length (female mice (Balb/c); [3]): −24% | colon reduction, ratio weight/length (female mice (Balb/c); [3]): −29% | increase in serum amyloid protein A (female mice (Balb/c); [3]): −37% | splenomegaly (female mice (Balb/c); [3]): not prevented | clinical score (female mice (Balb/c); Study 1, reference 1 mg/kg, ip (so in the source), day 6): −23% | colon reduction, length (female mice (Balb/c); Study 2, 1 mg/kg, sc): −17% | colon reduction, ratio weight/length (female mice (Balb/c); Study 2, 1 mg/kg, sc): −31% | increase in serum amyloid protein A (female mice (Balb/c); Study 2, 1 mg/kg, sc): −36% | splenomegaly (female mice (Balb/c); Study 2, 1 mg/kg, sc): not improved | clinical score (female mice (Balb/c); Study 2, 1 mg/kg, sc, day 5): −21% | colon reduction, length (female mice (Balb/c); Study 3, 1 mg/kg, sc): −29% | colon reduction, ratio weight/length (female mice (Balb/c); Study 3, 1 mg/kg, sc): −33% | content of IL-1β in colon (female mice (Balb/c); Study 3, 1 mg/kg, sc): trended to reduce | serum amyloid A protein (female mice (Balb/c); Study 3, 1 mg/kg, sc): trended to reduce | splenomegaly (female mice (Balb/c); Study 3, 1 mg/kg, sc): −27% | body weight loss (female mice (Balb/c); Study 3, 1 mg/kg, sc, day 5): −83% | clinical score (female mice (Balb/c); Study 3, 1 mg/kg, sc, day 5): −38% | clinical score (female mice (Balb/c); Study 3, 1 mg/kg, sc, day 7): −30%
